# Laboratory results taken from patent US20260373135A1, “Methods of Treatment with Tradipitant” (Vanda Pharmaceuticals Inc., priority 2022, published 2026).
# Read-outs that look alike come from different tables or passages of the source.
# Legend:
# [1] = Four-period, two-way crossover open label single-dose food-effect pharmacokinetic study of tradipitant capsules in healthy participants (plasma tradipitant and metabolites M2, M3, M4, M8); assay type: in vivo, human; conditions: for AUC(0-t), Least Squares Geometric Mean Ratio (%), Estimate / AUC(inf), Least Squares Geometric Mean Ratio (%), Estimate / Cmax, Least Squares Geometric Mean Ratio (%), Estimate: fed/fasted; for Tmax / AUC(0-t) / AUC(0-inf) / Cmax: plasma; for Tmax: median; for AUC(inf) Ratio of geometric means (170 mg / 85 mg) / Cmax Ratio of geometric means (170 mg / 85 mg): 85 mg vs 170 mg tradipitant
# Description: To evaluate the pharmacokinetics and effect of food on the bioavailability of single-dose capsules containing 170 mg tradipitant and 85 mg tradipitant, an open label, four-period, two-way crossover study is performed. The study comprises two cohorts, each of which conducts a screening phase and an evaluation phase. Cohort 1 only conducts Period 1 and Period 2 (FIG. 5), while Cohort 2 only conducts Period 3 and Period 4 (FIG. 6). It is possible for a participant in Cohort 1 to be a Participant in Cohort 2.
# The screening phase (Day-21 to Day-2, FIGS. 5-6) consists of a screening visit wherein an informed consent is obtained from potential participants, and their eligibility is initially assessed based on vital signs, body measurements, physical examination, ECG, clinical laboratory tests, drug and alcohol screen, and medical history. Clinical laboratory testing includes a pharmacogenetics sample for whole genome sequencing. Participants may include men or women aged 18-55 years, inclusive at the time of screening; having a Body Mass Index (BMI) of ≥18.0 and ≤39.0 kg/m^2 (BMI=weight (kg)/[height (m)]^2); and female participants of childbearing potential must be non-pregnant and non-lactating. Participants must be in good health as determined by a medical and psychiatric history, physical examination, electrocardiogram, and serum chemistry and hematology; willing to comply with study procedures and restrictions; willing to provide a pharmacogenetic sample; and have negative test result for selected substances of abuse at screening. Individuals may be excluded from participating based on history (within the 12 months prior to screening) of psychiatric disorders; current clinically significant cardiovascular, respiratory, neurologic, hepatic, hematopoietic, renal, gastrointestinal, or metabolic dysfunction unless currently controlled and stable; history of intolerance and/or hypersensitivity to other NK-1 receptor antagonists; clinically significant deviation from normal in clinical laboratory results, vital signs measurements, or physical examination findings at screening as determined by the clinical investigator; major surgery, trauma (including broken pelvis/legs), illness (e.g. sepsis), or immobility for 3 or more days within the past month; active cancer or cancer treatment within the past 6 months prior to screening; central venous catheter in place or within the past month; impaired liver function indicated by AST, ALT, or bilirubin >2 times the upper limit of normal, unless there is an isolated bilirubin >2 times the upper limit of normal due to Gilbert's syndrome; pregnancy or recent pregnancy (within 6 weeks prior to screening) or women who are breastfeeding; history of drug or alcohol abuse as defined in DSM-V, Diagnostic Criteria for Drug and Alcohol Abuse, within the 12 months prior to screening and/or regular consumption of alcoholic drinks (>2 drinks/day or >14 drinks/week); randomization in a previous tradipitant trial; and participants at risk of suicide, in the opinion of the Investigator. […]
# NK-1 receptors = conditions: preclinical and clinical studies; cited from earlier work
# [2] = fasted conditions, 85 mg vs 170 mg
smiles,measurement,setting,value
"O=C(c1ccccc1Cl)c1cccnc1-c1nnn(Cc2cc(C(F)(F)F)cc(C(F)(F)F)c2)c1-c1ccncc1 [tradipitant, {2-[1-(3,5-Bistrifluoromethylbenzyl)-5-pyridin-4-yl-1H-[1,2,3]triazol-4-yl]-pyridin-3-yl}-(2-chlorophenyl)-methanone]",increase in Tmax in the fed state,"[1]; 85 mg tradipitant oral, fed vs fasted",2 fold
same,"AUC(0-t), Least Squares Geometric Mean Ratio (%), Estimate",[1]; 85 mg tradipitant oral,234.21%
same,"AUC(inf), Least Squares Geometric Mean Ratio (%), Estimate",[1]; 85 mg tradipitant oral,263.08%
same,"Cmax, Least Squares Geometric Mean Ratio (%), Estimate",[1]; 85 mg tradipitant oral,437.59%
same,"Cmax, Least Squares Geometric Mean Ratio (%), Estimate","[1]; 85 mg tradipitant oral, listed as Tradipitant",473.59%
same,Tmax,"[1]; 170 mg tradipitant oral, fasted",1.50 (15) hr
same,"AUC(0-t), Least Squares Geometric Mean Ratio (%), Estimate",[1]; 170 mg tradipitant oral,328.21%
same,"AUC(inf), Least Squares Geometric Mean Ratio (%), Estimate",[1]; 170 mg tradipitant oral,381.70%
same,"Cmax, Least Squares Geometric Mean Ratio (%), Estimate",[1]; 170 mg tradipitant oral,703.87%
same,Tmax,"[1]; 170 mg tradipitant oral, fed",4.00 (15) hr
same,dose proportionality of AUC(inf),[1]; [2],close to dose proportional
same,dose proportionality of Cmax,[1]; [2],less than dose proportionality
same,AUC(inf) Ratio of geometric means (170 mg / 85 mg),[1]; fasted conditions,1.92
same,Cmax Ratio of geometric means (170 mg / 85 mg),[1]; fasted conditions,1.32
same,AUC(inf) Ratio of geometric means (170 mg / 85 mg),[1]; fed conditions,2.30
same,Cmax Ratio of geometric means (170 mg / 85 mg),[1]; fed conditions,1.93
same,"effect of fed state on absorption (extent/rate, Tmax)","[1]; fed vs fasted, both 170 mg and 85 mg doses",an increase in the extent and a decrease in the rate of absorption
same,AUC(0-t),"[1]; human, po, 85 mg, 85 mg tradipitant oral, fasted, ln-transformed, read-out: AUC(0-t), Least Squares Geometric Mean, Fasted",1650 ng·h/mL
same,AUC(0-inf),"[1]; human, po, 85 mg, 85 mg tradipitant oral, fasted, ln-transformed, read-out: AUC(inf), Least Squares Geometric Mean, Fasted",1790 ng·h/mL
same,Cmax,"[1]; human, po, 85 mg, 85 mg tradipitant oral, fasted, ln-transformed, read-out: Cmax, Least Squares Geometric Mean, Fasted",84.7 ng/mL
same,AUC(0-inf),"[1]; human, po, 85 mg, 85 mg tradipitant oral, fasted, geometric mean [geometric % CV], read-out: AUC(inf)",1840 ng·h/mL
same,Cmax,"[1]; human, po, 85 mg, 85 mg tradipitant oral, fasted, geometric mean [geometric % CV], read-out: Cmax",84.7 ng/mL
same,Tmax,"[1]; human, po, 85 mg, 85 mg tradipitant oral, fasted, read-out: Tmax",2 h
same,AUC(0-t),"[1]; human, po, 85 mg, 85 mg tradipitant oral, fed, ln-transformed, read-out: AUC(0-t), Least Squares Geometric Mean, Fed",3860 ng·h/mL
same,AUC(0-inf),"[1]; human, po, 85 mg, 85 mg tradipitant oral, fed, ln-transformed, read-out: AUC(inf), Least Squares Geometric Mean, Fed",4700 ng·h/mL
same,Cmax,"[1]; human, po, 85 mg, 85 mg tradipitant oral, fed, ln-transformed, read-out: Cmax, Least Squares Geometric Mean, Fed",401 ng/mL
same,AUC(0-inf),"[1]; human, po, 85 mg, 85 mg tradipitant oral, fed, geometric mean [geometric % CV], read-out: AUC(inf)",4520 ng·h/mL
same,Cmax,"[1]; human, po, 85 mg, 85 mg tradipitant oral, fed, geometric mean [geometric % CV], read-out: Cmax",401 ng/mL
same,Tmax,"[1]; human, po, 85 mg, 85 mg tradipitant oral, fed, read-out: Tmax",4 h
same,AUC(0-t),"[1]; human, po, 170 mg, 170 mg tradipitant oral, fasted, ln-transformed, read-out: AUC(0-t), Least Squares Geometric Mean, Fasted",2800 ng·h/mL
same,AUC(0-inf),"[1]; human, po, 170 mg, 170 mg tradipitant oral, fasted, ln-transformed, read-out: AUC(inf), Least Squares Geometric Mean, Fasted",2730 ng·h/mL
same,Cmax,"[1]; human, po, 170 mg, 170 mg tradipitant oral, fasted, ln-transformed, read-out: Cmax, Least Squares Geometric Mean, Fasted",111 ng/mL
same,AUC(0-inf),"[1]; human, po, 170 mg, 170 mg tradipitant oral, fasted, geometric mean [geometric % CV], read-out: AUC(inf)",3530 ng·h/mL
same,Cmax,"[1]; human, po, 170 mg, 170 mg tradipitant oral, fasted, geometric mean [geometric % CV], read-out: Cmax",112 ng/mL
same,Tmax,"[1]; human, po, 170 mg, 170 mg tradipitant oral, fasted, read-out: Tmax",1.5 h
same,AUC(0-t),"[1]; human, po, 170 mg, 170 mg tradipitant oral, fed, ln-transformed, read-out: AUC(0-t), Least Squares Geometric Mean, Fed",9180 ng·h/mL
same,AUC(0-inf),"[1]; human, po, 170 mg, 170 mg tradipitant oral, fed, ln-transformed, read-out: AUC(inf), Least Squares Geometric Mean, Fed",10400 ng·h/mL
same,Cmax,"[1]; human, po, 170 mg, 170 mg tradipitant oral, fed, ln-transformed, read-out: Cmax, Least Squares Geometric Mean, Fed",778 ng/mL
same,AUC(0-inf),"[1]; human, po, 170 mg, 170 mg tradipitant oral, fed, geometric mean [geometric % CV], read-out: AUC(inf)",10400 ng·h/mL
same,Cmax,"[1]; human, po, 170 mg, 170 mg tradipitant oral, fed, geometric mean [geometric % CV], read-out: Cmax",774 ng/mL
same,Tmax,"[1]; human, po, 170 mg, 170 mg tradipitant oral, fed, read-out: Tmax",4 h
same,blockade of brain NK-1 receptors,NK-1 receptors,long-lasting blockade of brain NK-1 receptors
